Each block holds one compound with its values, some of them ahead of it. Bridge positions count the residues as written; N and C are the ends. Ends that are not written are not given here. Peptide text beside a SMILES is read from it.
Assays:
[1] = Drug safety assessment in vivo, blood indexes; set-up: species or system C57BL/C mice; details: 50 mg/kg intraperitoneal once, 24 hours; for platelets (PLT) / red blood cells (RBC) / white blood cells (WBC) in the blood: compared with R9 and PBS; for white blood cells (WBC) in the blood / hemoglobin (HMGB): within the normal range
Procedure: Referring to FIGS. 7A to 7H, (A) drug safety assessment in vivo: C57BL/C mice raised for 7 weeks were intraperitoneally injected with a dose of 50 mg/kg (R9, RM3, RSM3) once, after 24 hours, the mice were sacrificed and the blood of the mice was taken to measure indexes such as white blood cells, platelets, red blood cells, and hemoglobin, to analyze toxicity of the drug to normal animals.

[2] = system: PC3 prostate cancer cells with high expression of METTL3; assay: Anti-tumor experiment in vivo, PC3 prostate tumor-bearing mouse model; set-up: species or system BALB/c nude mice; details: for body weight changes: tumor model mice
Procedure: (B) Anti-tumor experiment in vivo: a prostate tumor-bearing mouse model is selected, the specific steps to construct the animal model are as follows: PC3 prostate cancer cells with high expression of METTL3 were cultured to a logarithmic growth phase, the PC3 prostate cancer cells were digested, collected, and prepared into a cell suspension with a concentration of 1×10^7 cells/mL. 4 to 6 week-old male and female BALB/c nude mice were taken, and were injected with 100 μL of cell suspension into the back of the hind limbs, to establish a tumor model. After a diameter of the mouse tumor grows to about 0.5 cm, the mice were randomly divided into groups according to the experimental requirements: PBS, R9, RM3, RSM3, etc. Peritumoral administration is performed on the mice, once every two days, for two consecutive weeks.

[3] = target: METTL3 and METTL14 (Homo sapiens, UniProt Q86U44); assay: Binding to METTL3 and METTL14 proteins in vitro
[4] = system: DU145 cells; assay: Growth/proliferation inhibition, CCK-8 and clone formation, DU145; format: cell-based, human; details: for effect of inhibiting cell growth after combining with the cell-penetrating peptide R9: CCK-8, 24 hours, peptide connected with R9
Procedure: (§1) 5.1 Referring to FIG. 5A, the polypeptides R9, RM3, and RSM3 were prepared into a 50 mM mother solution with sterile pure water, and the mother solution was gradiently diluted with a basal culture medium, the diluted peptide solution was added to 96-well plates pre-laid with PC3 and DU145 cells, 100 μL per well, and three replicates for each concentration. After 24 h of treatment, the OD value at 450 nm was measured with a CCK-8 kit, and the results were calculated and analyzed.
(§2) FIG. 5B illustrates a clone formation experiment, the grown PC3 and DU145 cells were digested with 0.25% trypsin and the number of cells were counted, 300 cells were added to each well of the six-well plate, and 2 ml of complete culture medium was added to continue culturing for 24 hours. M3, R9, RM3, and RSM3 were added to each well and cultured for 7 days, the medium was discarded, the cells were washed, stained with crystal violet, and then microscopically photographed, and the number of the cells were counted.
(§3) Referring to FIG. 6, the above two polypeptides were prepared into a 50 mM mother solution with sterile pure water, and then gradiently diluted with a basal culture medium, the diluted peptide solution was added to a 96-well plate pre-laid with PC3 and DU145 cells, 100 μL per well, and three replicates for each concentration. After 24 hours of treatment, the OD value was measured at 450 nm using CCK-8, and the obtained values were calculated.

[5] = system: PC3 cells; assay: Growth/proliferation inhibition, CCK-8 and clone formation, PC3; format: cell-based, human; details: for effect of inhibiting cell growth after combining with the cell-penetrating peptide R9: CCK-8, 24 hours, peptide connected with R9
Procedure: as §1, §2, §3

[6] = system: DU145 (human prostate cancer cells); details: for effect of mutation of R9-MPF13 on the anti-proliferative effect: relative to R9-MPF13; for inhibitory effect on the proliferation of prostate cancer cells DU145: DU145, 48 hours, MTT
Procedure: 5.2 Some of the polypeptides in Table 1 were prepared into a 10 mM mother solution with sterile pure water, and the mother solution is gradiently diluted with a basal culture medium, the diluted polypeptide solution was added to 96-well plates with DU145 cells pre-laid, 100 μL per well, and four replicates for each concentration. After 48 hours of treatment, the modified MTT kit was used to treat and measure the OD value at 580 nm, and the results were calculated and analyzed.
(§4) The experiment method includes: the polypeptide was prepared into a 10 mM mother solution with sterile pure water, and after gradient dilution with a basal culture medium, the diluted polypeptide solution was added to a 96-well plate with various cells pre-laid, 100 μL per well, and four replicates for each concentration. After 48 hours of treatment, the modified MTT kit was used to treat and measure the OD value at 580 nm, and the results are calculated and analyzed.

[7] = system: HCT116 (colorectal cancer cell line); details: 48 h
Procedure: as §4

[8] = system: OVCAR-3 (ovarian adenocarcinoma cells); details: 48 h
Procedure: as §4

[9] = system: SaoS2 (human osteosarcoma cells); details: 48 h
Procedure: as §4

[10] = system: K562 (human chronic myeloid leukemia cells); details: 48 h
Procedure: as §4

[11] = system: HepG2 (human hepatoblastoma cells); details: 48 h
Procedure: as §4

[12] = system: A375 (human malignant melanoma); details: 48 h
Procedure: as §4

[13] = system: Hela (human anterior cervical cancer cells); details: 48 h
Procedure: as §4

[14] = system: A549 (lung cancer human alveolar basal epithelial cells); details: 48 h
Procedure: as §4

[15] = target: T1, METTL3 (Homo sapiens, UniProt Q86U44); assay: Inhibition of METTL3 expression in prostate cancer cells, immunoblot; format: cell-based; details: PC3 and DU145 cells, 20 μM, 24 hours
T1 construct: endogenous in cells; host or cells: PC3 and DU145 cells
Procedure: Referring to FIG. 4, a certain amount of polypeptide was weighed and dissolved into a 50 mM mother solution, the polypeptides R9, RM3, and RSM3 were prepared into a 50 mM mother solution with sterile pure water, after gradient dilution, the mother solution were added to a 6-well plate with PC3 and DU145 cells pre-laid, the final concentration of the polypeptide was 20 μM, 2 mL per well, and three replicates were used for each concentration. After 24 hours of treatment, the cells were lysed to extract cell proteins, and the proteins were separated by electrophoresis and transferred to a PVDF membrane, to incubate the primary antibody and secondary antibody of METTL3, and finally exposed for imaging.
In FIG. 4, GAPDH is an internal reference in the immunoblotting experiment (WB experiment).

[16] = system: RNA methylation; assay: Determination of RNA methylation (m6A) in prostate cancer cells, dot blot; format: cell-based, human; details: PC3 and DU145 cells, 12 hours
Procedure: In FIG. 3, MB is methylene blue staining, and m^6A is methylation content. 500 ng and 3000 ng are the loaded sample amounts of RNA in the experiment.

[17] = peritumoral administration once every two days for two weeks
[18] = CCK-8 24 h, clone formation 7 days

T1 sequence (Q86U44 2-580 limits assumed): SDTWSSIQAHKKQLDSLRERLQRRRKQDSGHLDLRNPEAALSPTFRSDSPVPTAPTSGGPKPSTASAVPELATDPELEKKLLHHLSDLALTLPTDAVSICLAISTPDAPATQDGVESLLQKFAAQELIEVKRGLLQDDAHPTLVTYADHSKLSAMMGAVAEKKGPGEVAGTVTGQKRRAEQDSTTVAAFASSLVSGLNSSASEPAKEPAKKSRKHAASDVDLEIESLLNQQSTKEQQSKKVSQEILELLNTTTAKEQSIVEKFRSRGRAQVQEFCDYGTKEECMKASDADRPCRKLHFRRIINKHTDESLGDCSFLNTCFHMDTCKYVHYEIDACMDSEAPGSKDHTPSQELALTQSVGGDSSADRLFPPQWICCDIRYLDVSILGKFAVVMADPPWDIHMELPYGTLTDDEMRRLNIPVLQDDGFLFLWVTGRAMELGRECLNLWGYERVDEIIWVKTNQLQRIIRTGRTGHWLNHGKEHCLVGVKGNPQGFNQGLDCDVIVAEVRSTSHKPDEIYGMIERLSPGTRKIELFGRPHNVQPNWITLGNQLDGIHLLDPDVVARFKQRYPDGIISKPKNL
METTL3 and METTL14, sequence (Q86U44 whole entry, species assumed): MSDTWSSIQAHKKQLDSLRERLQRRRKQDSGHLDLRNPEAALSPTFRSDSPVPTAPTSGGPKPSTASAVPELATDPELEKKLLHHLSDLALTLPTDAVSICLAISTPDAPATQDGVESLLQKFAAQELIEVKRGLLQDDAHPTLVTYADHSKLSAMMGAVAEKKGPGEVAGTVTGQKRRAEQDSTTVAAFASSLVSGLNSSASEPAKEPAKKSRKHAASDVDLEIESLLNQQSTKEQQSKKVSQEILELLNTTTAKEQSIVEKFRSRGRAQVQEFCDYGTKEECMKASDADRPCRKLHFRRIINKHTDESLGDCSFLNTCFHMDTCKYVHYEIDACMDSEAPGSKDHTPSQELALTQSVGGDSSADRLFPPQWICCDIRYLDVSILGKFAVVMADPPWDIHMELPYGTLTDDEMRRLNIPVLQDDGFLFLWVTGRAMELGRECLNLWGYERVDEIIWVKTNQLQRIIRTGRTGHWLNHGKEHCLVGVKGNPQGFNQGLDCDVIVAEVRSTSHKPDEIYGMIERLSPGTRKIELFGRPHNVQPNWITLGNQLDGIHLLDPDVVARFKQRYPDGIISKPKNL

Compound: CSCC[C@H](NC(=O)[C@H](CS)NC(=O)[C@H](CCCNC(=N)N)NC(=O)[C@H](CCCNC(=N)N)NC(=O)[C@H](CCCNC(=N)N)NC(=O)[C@H](CCCNC(=N)N)NC(=O)[C@H](CCCNC(=N)N)NC(=O)[C@H](CCCNC(=N)N)NC(=O)[C@H](CCCNC(=N)N)NC(=O)[C@H](CCCNC(=N)N)NC(=O)[C@@H](N)CCCNC(=N)N)C(=O)N[C@@H](CCC(=O)O)C(=O)N[C@@H](CC(C)C)C(=O)NCC(=O)N[C@@H](CCCNC(=N)N)C(=O)N[C@@H](CCC(=O)O)C(=O)N[C@@H](CS)C(=O)N[C@@H](CC(C)C)C(=O)N[C@@H](CC(N)=O)C(=O)N[C@@H](CC(C)C)C(=O)N[C@@H](Cc1c[nH]c2ccccc12)C(N)=O [RM3] (H-RRRRRRRRRCMELGRECLNLW-NH2)
platelets (PLT) [1]: no significant effect
red blood cells (RBC) [1]: no significant effect
white blood cells (WBC) in the blood [1]: slightly increased this index
hemoglobin (HMGB) [1]: a certain reducing effect
body weight changes [2, 17]: no significant effect on the body weight

binding to the proteins of METTL3 and METTL14 [3]: can bind
Compound: ELGRECLNLW [Polypeptide M3]

Compound: FGRPHNVQ [Polypeptide M2, tested after being connected with the cell-penetrating peptide R9]
effect of inhibiting cell growth after combining with the cell-penetrating peptide R9 [4]: certain effect of inhibiting cell growth
effect of inhibiting cell growth after combining with the cell-penetrating peptide R9 [5]: certain effect of inhibiting cell growth

Compound: QLQRIIRTGRTGHWLNHG [Polypeptide M1, tested after being connected with the cell-penetrating peptide R9]
effect of inhibiting cell growth after combining with the cell-penetrating peptide R9 [4]: certain effect of inhibiting cell growth
effect of inhibiting cell growth after combining with the cell-penetrating peptide R9 [5]: certain effect of inhibiting cell growth

Compound: RRRRRRRRRRAMEEGRECLNLW [Polypeptide R9-RE]
effect of mutation of R9-MPF13 on the anti-proliferative effect [6]: weaken the anti-proliferative effect

Compound: RRRRRRRRRRAMELGRECLNLA [Polypeptide R9-RA]
effect of mutation of R9-MPF13 on the anti-proliferative effect [6]: weaken the anti-proliferative effect

Compound: RRRRRRRRRRKMELGREFLNLW [Polypeptide R9-RKF]
effect of mutation of R9-MPF13 on the anti-proliferative effect [6]: enhance the anti-proliferative effect

IC50 [7]: < 11 µM
IC50 [8]: < 11 µM
IC50 [9]: < 11 µM
IC50 [10]: < 11 µM
IC50 [11]: < 11 µM
IC50 [12]: < 11 µM
IC50 ([6]; 48 h): < 11 µM
IC50 [13]: < 11 µM
IC50 [14]: < 11 µM
Compound: RRRRRRRRRRKMELGRELLNLW-NH2 (C-terminus assumed) [Polypeptide R9-RKL]
inhibitory effect on the proliferation of prostate cancer cells DU145 [6]: better inhibitory effect
effect of mutation of R9-MPF13 on the anti-proliferative effect [6]: enhance the anti-proliferative effect

Compound: RRRRRRRRRRKMELGREMLNLW [Polypeptide R9-RKM]
effect of mutation of R9-MPF13 on the anti-proliferative effect [6]: enhance the anti-proliferative effect

Compound: RRRRRRRRRRKMELGREYLNLW [Polypeptide R9-RKY]
effect of mutation of R9-MPF13 on the anti-proliferative effect [6]: enhance the anti-proliferative effect

Compound: RRRRRRRRRRKWCLGRELLCLW (stapled peptide precursor) [Polypeptide R9-PSRKWL]
inhibitory effect on the proliferation of prostate cancer cells DU145 [6]: better inhibitory effect

Compound: RRRRRRRRRRKWELGRELLNLW [Polypeptide R9-RKWL]
inhibitory effect on the proliferation of prostate cancer cells DU145 [6]: better inhibitory effect
effect of mutation of R9-MPF13 on the anti-proliferative effect [6]: enhance the anti-proliferative effect

Compound: RRRRRRRRRRRMELGRELLNLW [Polypeptide R9-RRL]
effect of mutation of R9-MPF13 on the anti-proliferative effect [6]: enhance the anti-proliferative effect

Compound: RSM3: stapled peptide from RM3, 10th and 17th cysteines connected through 4,4-bis(bromomethyl)biphenyl (RRRRRRRRRCMELGRECLNLW; linker 10-17 via 4,4‑bis(bromomethyl)biphenyl)
inhibitory effect on the growth of prostate cancer cells [4, 18]: good inhibitory effect
inhibition of the expression of METTL3 [15]: inhibit the expression of METTL3
platelets (PLT) [1]: no significant effect
red blood cells (RBC) [1]: no significant effect
white blood cells (WBC) in the blood [1]: slightly increased this index
hemoglobin (HMGB) [1]: a certain reducing effect
inhibitory effect on the growth of prostate cancer cells [5, 18]: good inhibitory effect
inhibition of RNA methylation (m6A) [16]: better in terms of stability and methylation inhibition effect
inhibition of RNA methylation (m6A) ([16]; listed as R SM3): significantly inhibit the RNA methylation
tumor mass ([2]; compared with R9 group and PBS, peritumoral administration once every two days for two weeks): significantly less
effect of inhibiting the growth of prostate tumors ([2]; overall comparison of the METTL3 polypeptide inhibitors): more effective
tumor volume changes [2, 17]: significantly inhibit the increase in tumor volume
body weight changes [2, 17]: no significant effect on the body weight

Reference: patent US20250296956A1, “POLYPEPTIDE, PREPARATION METHOD, AND USE THEREOF” (Hunan University, priority 2022, published 2025)
